Source: patent US20230338609A1, “MEDICAL DEVICES AND MATERIALS COMPRISING BIODEGRADABLE POLYESTERS” (AMICOAT AS, priority 2020, published 2023)
Converted amounts (≈) assume the structure as drawn. Like-named read-outs stand apart in the source and are kept apart here. Residues, ends and D or L forms follow the SMILES beside them. *: point of attachment. NHPhenethyl = c1ccc(CCN*)cc1

How the values were obtained:
[1] = system: Haemophilus influenzae - ATCC 47247; assay: MIC microbroth dilution (CLSI), extra control strain; design: unit not given beside the values; settings: H. influenzae ATCC 47247; HTM
[2] = system: Staphylococcus aureus, strain ATCC 25923; settings: for MIC S. aureus: Staphylococcus aureus ATCC 25923
[3] = system: Bacteroides fragilis - ATCC 25285; assay: MIC microbroth dilution (CLSI), extra control strain; format: cell-based; design: unit not given here; settings: B. fragilis ATCC 25285; SBB
[4] = system: Eggerthella lenta - ATCC 43055; assay: as above; format: cell-based; design: unit not given here; settings: SBB
[5] = system: Moraxella catarrhalis - β -lactamase positive clinical isolate; format: cell-based; settings: M. catarrhalis β-lactamase positive
From the text: (§1) Cation-adjusted Mueller-Hinton broth (Oxoid Ltd., Basingstoke, UK and Trek Diagnostic Systems Ltd., East Grinstead, UK) (supplemented with 5% laked horse blood for Streptococcus spp., Corynebacterium jeikeium and Listeria monocytogenes) was used for aerobic bacteria, with an initial inoculum of approximately 10^5 colony-forming units (CFU)/mL.

[6] = system: Streptococcus pyogenes - Macrolide (M-type) resistance clinical isolate; format: cell-based; settings: S. pyogenes Macrolide (M-type) resistance
From the text: as §1

[7] = system: Moraxella catarrhalis - reduced fluoroquinolone susceptibility clinical isolate; format: cell-based; settings: M. catarrhalis reduced fluoroquinolone susceptibility
From the text: as §1

[8] = system: Shigella sp - antibiotic-susceptible clinical isolate; assay: MIC microbroth dilution (CLSI); format: cell-based
From the text: as §1

[9] = system: Salmonella sp - multi-drug resistant clinical isolate; assay: MIC microbroth dilution (CLSI); format: cell-based
From the text: as §1

[10] = system: Salmonella sp - antibiotic-susceptible clinical isolate; assay: MIC microbroth dilution (CLSI); format: cell-based
From the text: as §1

[11] = system: Methicillin resistant Staphylococcus aureus (MRSA) strain ATCC 33591; settings: for MIC MRSA: MRSA ATCC 33591
[12] = system: Candida parapsilosis ATCC 22019; assay: MIC microbroth dilution (CLSI), extra control strain; format: cell-based; settings: C. parapsilosis ATCC 22019; RPMI 1640
Description: Yeast and filamentous fungal MIC were performed in MOPS buffered RPMI 1640 medium (MOPS buffer obtained from Sigma Aldrich Ltd., RPMI 1640 obtained from Invitrogen Ltd, Paisley, Scotland). The yeast inocula were in the range 7.5×10^2-4×10^3 CFU/mL and the filamentous fungi approximately 8×10^3-1×10^5 CFU/mL

[13] = system: Clostridium difficile - antibiotic-susceptible clinical isolate; assay: MIC microbroth dilution (CLSI); format: cell-based; design: unit not given beside the values; settings: C. difficile
Description: Supplemented Brucella broth (SBB) was used for the anaerobic strains with an inoculum of approximately 10^6 CFU/mL. SBB is a broth consisting of 1% peptone, 0.5% ‘Lab-lemco’, 1% glucose and 0.5% sodium chloride supplemented with 5 […] vitamin K (both obtained from Sigma Aldrich Ltd.)

[14] = system: Methicillin resistant Staphylococcus epidermidis (MRSE) strain ATCC 27626; settings: for MIC MRSE: MRSE ATCC 27626
[15] = Solubility in organic solvents; format: physicochemical; settings: THF and chloroform
Description: Alternatively, both the compound of Formula (I) and the polymer may be dissolved in a single solvent, either prior to mixing, at the time or mixing or after mixing. Suitable solvents for this approach include THF and chloroform. It may be necessary to combine the compound of Formula (I) with the solvent, e.g. THF, for a long time, e.g. at least 4 hours, preferably at least 12 hours, maybe 1 or more days, possibly up to 7 or 14 days.
The Resomer RG502 bioresorbable polymer material and AMC-109 were separately dissolved in THF in such a manner that amount of AMC-109 compared to the bioresorbable polymer in the final painting solution was 5%. The dissolution of AMC-109 in THF takes several hours.
The Resomer L2065 bioresorbable polymer material and AMC-109 were separately dissolved in dichloromethane and chloroform, respectively. The ratio between AMC-109 and L2065 was the same as above.

[16] = system: Staphylococcus aureus FDA486; assay: Murine skin infection model, topical treatment; format: in vivo; settings: mice; cream or gel containing 2% (w/w); three treatments at three hourly intervals; biopsy three hours after last
Description: (§2) The skin of mice was infected with Staphylococcus aureus or Streptococcus pyogenes and subsequently given a total of three treatments at three hourly intervals. Three hours after the last treatment, skin biopsies were collected and the number of colony forming units (CFUs) present in the skin sample was determined. Results are shown in FIGS. 1 and 2, expressed as the number of colony forming units per mouse.
as §2, with “3, 4” for “1”, “5” for “2,”

[17] = system: Streptococcus pyogenes CS301; assay: Murine skin infection model, topical treatment; format: in vivo; settings: mice
Description: as §2
as §2, with “3, 4” for “1”, “5” for “2,”

S. pyogenes = settings: Table 5
C. albicans = settings: Table 5
P. aeruginosa = settings: Table 5
E. coli = settings: Table 5

What does the source list for `N=C(N)NCCCC(N)C(=O)NC(Cc1ccc(-c2ccc3ccccc3c2)cc1)C(=O)NC(CCCNC(=N)N)C(=O)NCCc1ccccc1` (stereo not shown) [Compound 1]?
MIC (control strain) [1]: 32; MIC S. aureus [2]: 4 µM (≈ 2.83 µg/mL); MIC (control strain) [3]: 64; MIC (control strain) [4]: 16; MIC [5]: 4; MIC [6]: 32; MIC [7]: 8; MIC [8]: 32; MIC [9]: 16; MIC [10]: 16; MIC MRSA [11]: <3 µM; MIC (control strain) [12]: 4; MIC [13]: 32; MIC MRSE [14]: <3 µM

For `CC(C)(C)c1cc(C(C)(C)C)c2[nH]c(C(C)(C)C)c(CC(NC(=O)C(N)CCCNC(=N)N)C(=O)NC(CCCNC(=N)N)C(=O)NCCc3ccccc3)c2c1` (stereo not drawn) [Compound 2, Arg-Tbt-Arg-NHCH2CH2Ph], which “MIC (control strain)” value [1] is on record?
The value was 4.

What about the “MIC (control strain)” value [3] of the same compound?
The value was 64.

What about the “MIC (control strain)” value [4] of the same compound?
The value was 32.

What about the MIC [5] of the same compound?
Its MIC is 4.

What about the MIC [6] of the same compound?
Its MIC is 16.

And the MIC [7]?
The MIC was 8.

And the MIC [8]?
The MIC was 8.

And the MIC [9]?
The MIC was 8.

What about the MIC [10] of the same compound?
The MIC was 8.

What about the “MIC (control strain)” value [12] of the same compound?
The value was 8.

And the MIC [13]?
The MIC was 16.

What about the solubility [15] of the same compound?
The solubility was “soluble in THF and chloroform”.

And the “number of CFUs in skin biopsy vs placebo” value [16]?
Its value is “the number of CFUs was reduced”.

And the “number of CFUs in skin biopsy vs placebo gel and bactroban” value ([17]; 1% or 2% gel, three treatments at three hourly intervals)?
The value was “more effective at reducing the number of CFUs than the placebo gel or the bactroban”.

And the “number of CFUs in skin biopsy, 2% gel compared with 1% gel” value ([17]; 2% gel vs 1% gel)?
Its value is “more effective than the gel containing only 1% of compound 2”.

Which “MIC S. aureus” value [2] does the source give for `N=C(N)NCCC[C@H](NC(=O)[C@H](Cc1c[nH]c2ccccc12)NC(=O)[C@@H](N)CCCNC(=N)N)C(=O)NCCc1ccccc1` [Compound 6, reference compound] (H-Arg-Trp-Arg-NHPhenethyl; N-terminus assumed) here?
Its value is 145 µM (≈ 89.9 µg/mL).

What about the “MIC MRSA” value [11] of the same compound?
The value was 97 µM (≈ 60.1 µg/mL).

What about the “MIC MRSE” value [14] of the same compound?
Its value is 81 µM (≈ 50.2 µg/mL).

Which “S. aureus (MIC)” value ([2]; ATCC 25923) does the source give for `CCCCNC(=O)[C@H](CCCNC(=N)N)NC(=O)[C@H](Cc1c(C(C)(C)C)[nH]c2c(C(C)(C)C)cc(C(C)(C)C)cc12)NC(=O)[C@@H](N)CCCNC(=N)N` [Compound 9] here?
Its value is 2 mg/L.

And the “S. pyogenes (MIC)” value (S. pyogenes)?
The value was 2 mg/L.

And the “MRSA (MIC)” value ([11]; ATCC 33591)?
Its value is 3 mg/L.

And the “C. albicans (MIC)” value (C. albicans)?
Its value is 10 mg/L.

And the “MRSE (MIC)” value ([14]; ATCC 27626)?
Its value is less than 2 mg/L.

What does the source list for `CCCNC(=O)[C@H](CCCNC(=N)N)NC(=O)[C@H](Cc1c(C(C)(C)C)[nH]c2c(C(C)(C)C)cc(C(C)(C)C)cc12)NC(=O)[C@@H](N)CCCNC(=N)N` [Compound 10]?
S. aureus (MIC) ([2]; ATCC 25923): 2 mg/L; S. pyogenes (MIC) (S. pyogenes): 2 mg/L; MRSA (MIC) ([11]; ATCC 33591): 3 mg/L; C. albicans (MIC) (C. albicans): 10 mg/L; MRSE (MIC) ([14]; ATCC 27626): <2 mg/L

For `CCCCCCCCCCCCCCCCNC(=O)[C@H](CCCNC(=N)N)NC(=O)[C@H](Cc1c(C(C)(C)C)[nH]c2c(C(C)(C)C)cc(C(C)(C)C)cc12)NC(=O)[C@@H](N)CCCNC(=N)N` [Compound 11], which “P. aeruginosa (MIC)” value (P. aeruginosa) is on record?
Its value is greater than 100 mg/L.

What about the “S. aureus (MIC)” value ([2]; Table 5, strain ATCC 25923) of the same compound?
Its value is 5 mg/L.

What about the “S. pyogenes (MIC)” value (S. pyogenes) of the same compound?
The value was 6 mg/L.

And the “E. coli (MIC)” value (E. coli)?
Its value is greater than 100 mg/L.

What about the “MRSA (MIC)” value ([11]; Table 5, strain ATCC 33591) of the same compound?
Its value is 4 mg/L.

What about the “C. albicans (MIC)” value (C. albicans) of the same compound?
The value was greater than 100 mg/L.

And the “MRSE (MIC)” value ([14]; Table 5, strain ATCC 27626)?
The value was 4 mg/L.

For `CC(C)CNC(=O)[C@H](CCCNC(=N)N)NC(=O)[C@H](Cc1c(C(C)(C)C)[nH]c2c(C(C)(C)C)cc(C(C)(C)C)cc12)NC(=O)[C@@H](N)CCCNC(=N)N` [Compound 12], which “S. aureus (MIC)” value ([2]; ATCC 25923) is on record?
Its value is less than 2 mg/L.

And the “S. pyogenes (MIC)” value (S. pyogenes)?
The value was 2 mg/L.

And the “MRSA (MIC)” value ([11]; ATCC 33591)?
The value was 3 mg/L.

And the “C. albicans (MIC)” value (C. albicans)?
The value was 10 mg/L.

And the “MRSE (MIC)” value ([14]; ATCC 27626)?
Its value is 2 mg/L.

For `CC(C)(C)c1cc(C(C)(C)C)c2[nH]c(C(C)(C)C)c(C[C@H](NC(=O)[C@@H](N)CCCNC(=N)N)C(=O)N[C@@H](CCCNC(=N)N)C(=O)NC3CCCCC3)c2c1` [Compound 13], which “S. aureus (MIC)” value ([2]; ATCC 25923) is on record?
The value was less than 2 mg/L.

What about the “S. pyogenes (MIC)” value (S. pyogenes) of the same compound?
Its value is less than 2 mg/L.

What about the “MRSA (MIC)” value ([11]; ATCC 33591) of the same compound?
Its value is 2 mg/L.

And the “C. albicans (MIC)” value (C. albicans)?
Its value is 10 mg/L.

And the “MRSE (MIC)” value ([14]; ATCC 27626)?
The value was 2 mg/L.

What does the source list for `CC(C)(C)c1cc(C(C)(C)C)c2[nH]c(C(C)(C)C)c(C[C@H](NC(=O)[C@@H](N)CCCNC(=N)N)C(=O)N[C@@H](CCCNC(=N)N)C(=O)NC3CCCC3)c2c1` [Compound 14]?
S. aureus (MIC) ([2]; ATCC 25923): <2 mg/L; S. pyogenes (MIC) (S. pyogenes): 2 mg/L; MRSA (MIC) ([11]; ATCC 33591): >15 mg/L; C. albicans (MIC) (C. albicans): 10 mg/L; MRSE (MIC) ([14]; ATCC 27626): <2 mg/L
